Measurements: US9732046B2, “Substituted 1,2,4-triazines as tubulin inhibitors” (YM Biosciences Australia Pty Ltd., priority 2003, dated 2017)

Key:
DU145 (Prostate Cancer) = experiment: Cellular growth inhibition assay (MTT), DU145; assay type: cell-based; details: Homo sapiens, DU-145, Table 1, 40 hr incubation
Method: (§1) For screening purposes, compounds were diluted in 96 well plates at a concentration of 20 μM. Plates were warmed at 37° C. for 30 minutes before assay.
(§2) K562 (Chronic Myeloid Leukemia), PC3 (Prostate Cancer), and DU145 (Prostate Cancer) were obtained from the American Type Culture Collection (ATCC). K562 was grown in RPMI, with 10% FBS with Glutamx added. DU145 cells were cultured in DMED, with 10% FBS and Glutamx and MEM non-essential amino acids added. PC3 cells were grown in F12K medium, with 10% FBS and Glutamx and MEM non-essential amino acids added. All cells were grown at 37° C. in 5% CO2.
(§3) Cell suspensions were prepared by harvesting cells from culture. (Cells used in this test should be in later log phase growth and high viability.) Cells were diluted in correct growth medium to 1.1× final concentration (from 50000 cell/mL to 200,000 cell/mL, depending on cell line).
(§4) Compounds to be tested were added (10 μL, 10× final concentration) to a flat bottom 96-well plate. The cellular suspension (90 μL per well) was added, and the plate incubated for 40 hr at 37° C., 5% CO2. MTT (20 μL per well, 5 mg/mL in PBS) was added and the plates were returned to the incubator for a further 6 hours. Lysis buffer (100 μL per well, 10% SDS, 0.01N HCl) was added and the plate stored in the incubator overnight. The plate was then read at 590 nm.

PC3 (Prostate Cancer) = experiment: Cellular growth inhibition assay (MTT), PC3; assay type: cell-based; details: Table 1, 40 hr incubation
Method: as §1, §2, §3, §4

[1] = system: K562 (Chronic Myeloid Leukemia); experiment: Cellular growth inhibition assay (MTT), K562; assay type: cell-based; details: Homo sapiens, Table 1, 40 hr incubation
Method: as §1, §2, §3, §4

[2] = molecular target: T1, TelJak2 (BaF3 TELJAK cells, TEL/Jak2 fusion) (Homo sapiens, UniProt O60674); experiment: Cellular growth inhibition assay (MTT), BaF3 TEL:JAK2 cell line; assay type: cell-based; details: Table 1, 40 hr incubation
T1 construct: The regions encompassing the kinase domain of JAK2 (nucleotides 2994-3914); expressed in transfected cells; host or cells: BaF3 cells bearing the pTET-off plasmid, transfected with pTELJAK2 (pTRE2 vector); the other entry of the earlier key: ETV6 (P41212, Transcription factor ETV6)
Method: as §1
(§5) The coding region encompassing nucleotides 1-487 of TEL was amplified by PCR using the oligonucleotides 5TEL (5′-GGAGGATCCTGATCTCTCTCGCTGTGAGAC-3′) (SEQ ID NO: 1) and 3TEL (5′-AGGC GTCGACTTCTTCTTGATGGTTCTG-3′) (SEQ ID NO: 2) and U937 mRNA as template. A BamH I site was incorporated into the 5TEL primer, and a Sal I site was incorporated into the 3TEL primer. The regions encompassing the kinase domain of JAK2 (nucleotides 2994-3914; JAK2F 5′-ACGC GTCGACGGTGCCTTTGAAGACCGGGAT-3 (SEQ ID NO: 3); JAK2R 5′-ATAGTTTAGCGGCCGCTCAGAATGAAGGTCATTT-3′) (SEQ ID NO: 4) and JAK3 (nucleotides 2520-3469; JAK3F 5′-GAAGTCGACTATGCCTGCCAAGACCCCACGATCTT-3′ (SEQ ID NO: 5); JAK3R 5′-GGATCTAGACTATGAAAAGGACAGGGAGTGGTGTTT-3′ (SEQ ID NO: 6)) were generated by PCR using Taq DNA polymerase (Gibco/BRL) and U937 mRNA as template. A Sal I site was incorporated into the forward primer of JAK2 and JAK3, a Not I site was incorporated into the JAK2 reverse primer and a Xba I site was added to the reverse primer of JAK3.
(§6) A TEL/Jak2 fusion was generated by digestion of the TELPCR product with BamH I/Sa1 I, digestion of the JAK2 PCR product with Sa1 I/Not I followed by ligation and subcloning into the mammalian expression Vector pTRE 2 (Clontech) digested with BamH I-Not I (pTELJAK2). For JAK3 Sa1 I/Not I cleaved kinase domain PCR product was ligated with BamH I/Sa1 I cleaved TELproduct followed by ligation into BamH I/Not I cleaved pTRE2 (pTELJAK3).
(§7) The growth factor dependent myelomonocytic cell line BaF3 bearing the pTET-off plasmid (Clontech) was transfected with either pTELJAK2 or pTELJAK3 and the cells selected for factor independent growth. BaF 3 wild type cells were cultured in DMEM 10% FCS, 10% WEHI 3B conditioned medium. BaF3 TELJAK cells were cultured in DMEM 10% Tet-System Approved FBS (without WEHI 3B conditioned medium).
as §3, §4

[3] = molecular target: T2, TelJak3 (BaF3 TELJAK cells, TEL/JAK3 fusion) (Homo sapiens, UniProt P52333); experiment: Cellular growth inhibition assay (MTT), BaF3 TEL:JAK3 cell line; assay type: cell-based; details: Table 1, 40 hr incubation
T2 construct: For JAK3 Sa1 I/Not I cleaved kinase domain PCR product was ligated with BamH I/Sa1 I cleaved TELproduct; expressed in transfected cells; host or cells: BaF3 cells bearing the pTET-off plasmid, transfected with pTELJAK3 (pTRE2 vector); the other entry of the earlier key: ETV6 (P41212, Transcription factor ETV6)
Method: as §1, §5, §6, §7, §3, §4

[4] = system: Tubulin (microtubule protein); experiment: Tubulin assay (turbidometric assay of microtubule assembly); assay type: biochemical; details: Table 1; 50 μM; absorbance at 340 nm, 37° C.
Method: Turbidometric assays of microtubule assembly were performed by incubating microtubule protein in cuvettes at 37° C. in a thermostatically controlled spectrophotometer measuring the change in absorbance at 340 nm over time. The microtubule protein was incubated with the each test compound at 0° C. and polymerisation was initiated by addition of 1 mM GTP, prior to heating to 37° C.

T2 sequence (P52333 with tags, fused parts or gaps): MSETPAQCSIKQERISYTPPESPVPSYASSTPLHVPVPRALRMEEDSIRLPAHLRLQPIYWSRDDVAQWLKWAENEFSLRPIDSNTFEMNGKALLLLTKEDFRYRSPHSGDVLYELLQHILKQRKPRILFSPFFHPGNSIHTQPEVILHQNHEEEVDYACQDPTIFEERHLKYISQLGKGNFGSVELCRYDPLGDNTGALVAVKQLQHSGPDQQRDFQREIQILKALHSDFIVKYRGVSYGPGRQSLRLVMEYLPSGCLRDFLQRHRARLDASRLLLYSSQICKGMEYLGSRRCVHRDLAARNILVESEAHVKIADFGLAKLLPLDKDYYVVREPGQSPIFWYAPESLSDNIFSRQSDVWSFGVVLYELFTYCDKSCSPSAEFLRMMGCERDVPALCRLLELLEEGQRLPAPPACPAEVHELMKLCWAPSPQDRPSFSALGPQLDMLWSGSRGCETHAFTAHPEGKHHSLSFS
T1 sequence (O60674 with tags, fused parts or gaps): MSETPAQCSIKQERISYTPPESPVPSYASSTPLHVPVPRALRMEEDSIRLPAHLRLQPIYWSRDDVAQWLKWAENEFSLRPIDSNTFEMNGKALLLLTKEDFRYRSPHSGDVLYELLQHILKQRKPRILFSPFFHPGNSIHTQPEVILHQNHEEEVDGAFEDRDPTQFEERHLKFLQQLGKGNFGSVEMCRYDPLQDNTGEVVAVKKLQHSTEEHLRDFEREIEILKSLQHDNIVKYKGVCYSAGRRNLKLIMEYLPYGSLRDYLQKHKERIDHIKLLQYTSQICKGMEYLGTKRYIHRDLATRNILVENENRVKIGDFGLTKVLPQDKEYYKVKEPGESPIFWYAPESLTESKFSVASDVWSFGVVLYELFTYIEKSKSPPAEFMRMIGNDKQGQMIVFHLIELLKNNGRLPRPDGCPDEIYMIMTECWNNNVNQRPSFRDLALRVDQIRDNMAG

SMILES	inhibition at 20 µM (DU145 (Prostate Cancer))	inhibition at 20 µM (PC3 (Prostate Cancer))	inhibition at 20 µM [1]	inhibition at 20 µM [2]	inhibition at 20 µM [3]	Tubulin inhibition of tubulin polymerisation [4]
CCCC(Nc1cncc(-c2ccc(NC(=O)NCC)c(OC)c2)n1)c1ccccn1 (stereo not drawn)	> 50%	> 50%	> 50%	> 50%	> 50%	+ (compounds which inhibited tubulin polymerisation by greater than 50% at 50 μM)
CCCC(Nc1cncc(-c2ccc(OCCN(CC)CC)c(OC)c2)n1)c1ccccc1 (stereo not drawn)	> 50%	> 50%	> 50%	> 50%	> 50%	+ (compounds which inhibited tubulin polymerisation by greater than 50% at 50 μM)
CCC[C@H](Nc1nc(-c2ccc(O)c(OC)c2)ncc1C)c1cccnc1	> 50%	> 50%	> 50%	> 50%	> 50%	+ (compounds which inhibited tubulin polymerisation by greater than 50% at 50 μM)
CCCC(Nc1cc(-c2ccc(O)c(OC)c2)ncn1)c1cccnc1 (stereo not drawn)	> 50%	> 50%	> 50%	> 50%	> 50%	+ (compounds which inhibited tubulin polymerisation by greater than 50% at 50 μM)
CCCC(Nc1cncc(-c2ccc(CNC(=O)C3CCCNC3)cc2)n1)c1ccccc1 (stereo not drawn)	> 50%	> 50%	> 50%	> 50%	> 50%	+ (compounds which inhibited tubulin polymerisation by greater than 50% at 50 μM)
CC[C@H](Nc1nc(-c2ccc(O)c(OC)c2)ncc1C)c1cccnc1	> 50%	> 50%	> 50%	> 50%	> 50%	+ (compounds which inhibited tubulin polymerisation by greater than 50% at 50 μM)
CCCC(Nc1cncc(-c2ccc(OCCCN3CCN(C)CC3)c(OC)c2)n1)c1ccccc1 (stereo not drawn)	> 50%	> 50%	> 50%	> 50%	> 50%	+ (compounds which inhibited tubulin polymerisation by greater than 50% at 50 μM)
CCCC(Nc1cncc(-c2ccc(NC(=O)NCC)c(OC)c2)n1)c1cncc(C)c1 (stereo not drawn)	> 50%	> 50%	> 50%	> 50%	> 50%	+ (compounds which inhibited tubulin polymerisation by greater than 50% at 50 μM)
CCNC(=O)Nc1ccc(-c2ncc(C)c(N[C@@H](CC)c3cccnc3)n2)cc1OC	> 50%	> 50%	> 50%	> 50%	> 50%	+ (compounds which inhibited tubulin polymerisation by greater than 50% at 50 μM)
CCCC(Nc1cncc(-c2ccc(OCCCCN3CCN(C)CC3)c(OC)c2)n1)c1ccccc1 (stereo not drawn)	> 50%	> 50%	> 50%	> 50%	> 50%	+ (compounds which inhibited tubulin polymerisation by greater than 50% at 50 μM)
CCNC(=O)Nc1ccc(-c2cncc(N[C@@H](CC)c3cccnc3)n2)cc1OC	> 50%	> 50%	> 50%	> 50%	> 50%	+ (compounds which inhibited tubulin polymerisation by greater than 50% at 50 μM)
CCCC(Nc1cncc(-c2cc(C)c(O)c(C)c2)c1)c1ccccc1 (stereo not drawn)	> 50%	> 50%	> 50%	> 50%	> 50%	+ (compounds which inhibited tubulin polymerisation by greater than 50% at 50 μM)
CCCC(Nc1cncc(-c2ccc(OCCCCN3CCCC3)c(OC)c2)n1)c1ccccc1 (stereo not drawn)	> 50%	> 50%	> 50%	> 50%	> 50%	+ (compounds which inhibited tubulin polymerisation by greater than 50% at 50 μM)
CCCC(Nc1cncc(-c2ccc(CN)c(OC)c2)n1)c1cccnc1 (stereo not drawn)	> 50%	> 50%	> 50%	> 50%	> 50%	+ (compounds which inhibited tubulin polymerisation by greater than 50% at 50 μM)
CCCC(Nc1cncc(-c2ccc(NC(=O)NCCCN3CCOCC3)c(OC)c2)n1)c1cccnc1 (stereo not drawn)	> 50%	> 50%	> 50%	> 50%	> 50%	+ (compounds which inhibited tubulin polymerisation by greater than 50% at 50 μM)
CCC[C@H](Nc1cncc(-c2ccc(NC(=O)NC)c(OC)c2)n1)c1cccnc1	> 50%	> 50%	> 50%	> 50%	> 50%	+ (compounds which inhibited tubulin polymerisation by greater than 50% at 50 μM)
CCNC(=O)Nc1ccc(-c2cncc(NC(CCOC)c3ccccc3)n2)cc1OC (stereo not drawn)	> 50%	> 50%	> 50%	> 50%	> 50%	+ (compounds which inhibited tubulin polymerisation by greater than 50% at 50 μM)
CCCC(Nc1cncc(-c2ccc(OCCCN3CCCC3)c(OC)c2)n1)c1ccccc1 (stereo not drawn)	> 50%	> 50%	> 50%	> 50%	> 50%	+ (compounds which inhibited tubulin polymerisation by greater than 50% at 50 μM)
